Assay results taken from patent US8017557B2, “Benzodioxole derivatives as modulators of proteolytic activity in plants” (Endura S.p.A., priority 2002, dated 2011).
Where two headings read alike, the source gives them in different places.

Columns and labels:
bromelain [1] = target: T1, bromelain (Ananas comosus, UniProt P14518); conditions: for initial velocity, Mean / initial velocity, test 1 / initial velocity, test 2 / Mean (% contr.): 1% PBO; for Mean (% contr.): % of control
Protocol: The assay was carried out as described in Heinrikson & Kezdy, 1976, Methods in Enzymol. 45, p. 740. The conditions are summarised briefly herein: 50 μg of bromelain was mixed with variable quantities of Na CBZ-L-lysine p-nitrophenyl ester substrate in 3 ml of 10 mM acetate buffer pH 4.6 containing KCl (0.1 M) and L-cystein (1 mM).

[2] = tested on: endopeptidase activity in cotton leaves; assay: Radial Diffusion Assay (RDA) of endopeptidase activity in cotton plants; format: in vivo, cotton (cv. Sicala V2i); conditions: for Endopeptidase activity, cv. V2i Bt PBO: U = trypsin equivalents
Protocol: The […] of the clear zone produced by the plant extracts was compared to a standard curve obtained by a serial dilution of trypsin. A standard solution of trypsin was used to plot a standard curve for each sample plate, thus the endopeptidase activity was expressed as units of trypsin equivalents. For each extract, the amount of soluble proteins in mg was determined by the Biuret method and the enzymatic activity was then expressed as specific activity i.e. Units/mg soluble proteins. Abscissa: time (days); ordinate: trypsin units/mg soluble protein.
(§1) The samples were collected at different development stages of plants, which were: […], 60 and 85 days after sowing. These samples were also analysed for determining the Bt content (as described in example 4). To this aim, the enzymatic activity was tested on crude freeze dried leaf extracts with two different assays: the Radial Diffusion Assay (RDA), in which a protein, such as the bovine gelatine, was used as a substrate to test the endopeptidase activity, and a photometric assay described in the next example, in which DL-BAPA was used as a substrate, to determine a general peptidase activity.
(§2) A powder aliquot, which represents each step of plant growth, of the treated and controls samples was extracted in two steps. The powder sample was extracted with buffer 0.1 M Tris-HCl pH 7.7 (1:20 w/v) using an Ultraturrax blender at 24,000×RPM for 2 min in a ice bath to avoid overheating. […] The clear supernatant was collected and filtrated with Whatman paper no 4. The pellet was further extracted with the same procedure, with the exception that in this case the extraction ratio was 1:10 (w/v). Finally, the supernatants of the two extractions processes were joined and then concentrated 4-5 times by centrifugation at 3,000×g at 15° C. for 2 hours, using suitable concentrators (Amicon Inc. Beverly, Mass.—USA), fitted with a membrane of 10 κD cut off.
(§3) For each extract, the amount of soluble proteins was determined by the Biuret method and the enzymatic activity was then expressed as specific activity i.e. Units/mg soluble proteins.
RDA was performed as described in Santarius, K. and Ryan, C., Anal. Biochem., 1977, 77: 1-9 in Petri dishes containing bovine gelatine as substrate, dispersed in agar gel. Each dish contained 5 wells of which 4 were filled with suitable aliquots of concentrated cotton extracts, whereas one was filled with a bovine β-trypsin as standard solution (0.2 U/ml). The dishes were covered and sealed with a plastic film to avoid evaporation and then incubated at 37° C. for 16 hours.
The enzymatic activity in the protein-agar gel produced a clear radial diffusion zone around each circular wells, due to the bovine gelatine proteolysis against an opaque background.
The trypsin equivalents were calculated by measuring the radii of the clear zones produced by the plant extracts and compared to a standard curve obtained by a serial dilution of trypsin. Each dish contained a standard solution of trypsin that was used to plot a standard curve for each plate, thus the endopeptidase activity was expressed as units of trypsin equivalents.
Each analysis was performed in quadruplicate. […] In table 6 are shown the differences between treated and untreated cotton samples as percentages.

[3] = tested on: peptidase activity in cotton plants; assay: Photometric assay of peptidase activity with DL-BAPA as substrate in cotton plants; format: in vivo, cotton (cv. Sicala V2i); conditions: for Peptidase activity, PBO treated cv. V2i Bt: DL-BAPA substrate
Protocol: The photometric assay was carried out following the DL-BAPA hydrolysis at 410 nm. One peptidase unit (U) was defined as the amount of the enzyme, which produces one unit of absorbance variation at 410 nm/minute at pH 8.2 and 30° C. For each extract, the amount of soluble proteins in mg was determined by the Biuret method and the enzymatic activity was then expressed as specific activity i.e. Units/mg soluble proteins.
Each analysis was performed in duplicate or in triplicate and the standard deviation for each point is also indicated. Abscissa: time (days); ordinate: trypsin units/mg soluble protein.
as §1, §2, §3
The photometric assay was carried out as described in Erlanger, B. F. et al. Arch. Biochem., 1961, 95: 271-278. In the assay is measured the absorbance variation due to DL-BAPA hydrolysis at 410 nm. The assay was performed mixing directly in the cuvette 20 μl of cotton crude extract with 980 μl of DL-BAPA in buffer 0.1 M Tris-HCl pH 8.2. One peptidase unit was defined as the amount of the enzyme which produces one unit of absorbance variation (410 nm) per minute at pH 8.2 and 30° C.
Each series of analysis was performed in duplicate or triplicate. […] In this figure is shown a maximum of peptidase activity around 60 days of development. […] A statistically significant inhibition is observed during the most part of the plant growing cycle. Finally, in table 7 is shown the specific activities of peptidase of treated and untreated Sicala V2i cotton samples. In this table it is also reported the activity differences in percentage between the treated and untreated samples.

bromelain [4] = target: T1, bromelain; assay: biochemical
Protocol: Reverse micelles assay of ISO-AOT 50 mM (AOT: twin aerosol (2-ethylhexylsodiumsulfosuccinate in isooctane (ISO)); Wo (H2O/AOT)=28
The assays were carried out in the reverse-micelles assay dispersed in organic solvent, described by Walde et al. in Eur. J. Biochem., 1988, 173:401-409, and already reported in the literature in kinetic studies of the inhibition of trypsin with natural and synthetic inhibitors. […]
The enzyme assay on reverse-micelle has been already described in the literature for the enzyme trypsin and was adapted to different enzymes. […] To this solution was added an appropriate volume of substrate CBZ (dissolved in acetonitrile/H2O, 80:20 (v/v) at a concentration of 15 mM) and following further agitation (the solution returned to being transparent), the change in absorbance was measured (Dabs) at 340 nm with a Cary 219 spectrophotometer.
The experimental data obtained are represented graphically in the form of Dixon-plot (described for example in: “Quantitative Problems in Biochemistry”, E A. Dawes, 5th ed. 1972 Baltimore, The Williams and Wilkins Company), in the FIGS. 1, 2 and 3.

[5] = PBO 0.334 % (w/w), substrate 240 μM
[6] = PBO 0.5 % (w/w), substrate 240 μM
[7] = PBO 0.667 % (w/w), substrate 240 μM
[8] = PBO 1 % (w/w), substrate 240 μM
[9] = PBO 1.334 % (w/w), substrate 240 μM
[10] = PBO 1.667 % (w/w), substrate 240 μM

T1 sequence (P14518 whole entry): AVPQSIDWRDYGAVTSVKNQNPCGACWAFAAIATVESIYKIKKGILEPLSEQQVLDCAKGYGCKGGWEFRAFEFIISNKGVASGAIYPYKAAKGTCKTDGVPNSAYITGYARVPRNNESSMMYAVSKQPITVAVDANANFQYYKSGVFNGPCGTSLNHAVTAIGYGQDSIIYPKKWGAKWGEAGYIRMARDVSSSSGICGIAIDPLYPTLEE

## CCCCOCCOCCOCc1cc2c(cc1CCC)OCO2 [PBO, 5-[[2-(2-Butoxyethoxy)ethoxy]methyl]-6-propyl-1,3-benzodioxole]
Bromelain [1]; substrate 24 μM
  initial velocity, Mean: 0.0136 absorbance at 340 nm/min
  initial velocity, test 1: 0.0141 absorbance at 340 nm/min
  initial velocity, test 2: 0.0130 absorbance at 340 nm/min
  Mean (% contr.): 68%
Bromelain [1]; substrate 48 μM
  initial velocity, Mean: 0.0270 absorbance at 340 nm/min
  initial velocity, test 1: 0.0243 absorbance at 340 nm/min
  initial velocity, test 2: 0.0297 absorbance at 340 nm/min
  Mean (% contr.): 68%
Bromelain [1]; substrate 96 μM
  initial velocity, Mean: 0.0490 absorbance at 340 nm/min
  initial velocity, test 1: 0.0518 absorbance at 340 nm/min
  initial velocity, test 2: 0.0461 absorbance at 340 nm/min
  Mean (% contr.): 78%
Bromelain [1]; [5]
  Initial velocity (% of control), Exp. 1: 95%
  Initial velocity (% of control), Exp. 2: 98%
  Initial velocity, Exp. 1: 0.1306 absorbance at 340 nm/min
  Initial velocity, Exp. 2: 0.1197 absorbance at 340 nm/min
  Initial velocity, Exp. 3: 0.1029 absorbance at 340 nm/min
Bromelain [1]; [6]
  Initial velocity (% of control), Exp. 1: 91%
  Initial velocity, Exp. 1: 0.1252 absorbance at 340 nm/min
Bromelain [1]; [7]
  Initial velocity (% of control), Exp. 2: 88%
  Initial velocity, Exp. 2: 0.1079 absorbance at 340 nm/min
Bromelain [1]; [8]
  Initial velocity (% of control), Exp. 1: 86%
  Initial velocity (% of control), Exp. 2: 86%
  Initial velocity, Exp. 1: 0.1194 absorbance at 340 nm/min
  Initial velocity, Exp. 2: 0.1057 absorbance at 340 nm/min
Bromelain [1]; [9]
  Initial velocity (% of control), Exp. 2: 84%
  Initial velocity, Exp. 2: 0.1029 absorbance at 340 nm/min
Bromelain [1]; [10]
  Initial velocity (% of control), Exp. 2: 76%
  Initial velocity, Exp. 2: 0.0927 absorbance at 340 nm/min
Bromelain [1]; substrate 240 μM, concentration dependent
  PBO concentration with inhibitory activity on bromelain: higher than 0.5%
[2]; 4 days after sowing
  Difference % Treated minus untreated (endopeptidase, RDA): 9.15%
  Endopeptidase activity, cv. V2i Bt PBO: 5.90 U/mg protein
[2]; 35 days after sowing
  Difference % Treated minus untreated (endopeptidase, RDA): −5.35%
  Endopeptidase activity, cv. V2i Bt PBO: 8.04 U/mg protein
[2]; 60 days after sowing
  Difference % Treated minus untreated (endopeptidase, RDA): −39.31%
  Endopeptidase activity, cv. V2i Bt PBO: 4.07 U/mg protein
[2]; 85 days after sowing
  Difference % Treated minus untreated (endopeptidase, RDA): −16.42%
  Endopeptidase activity, cv. V2i Bt PBO: 4.14 U/mg protein
[3]; 4 days after sowing
  Difference % Treated minus untreated (peptidase, DL-BAPA): 4.99%
  Peptidase activity, PBO treated cv. V2i Bt: 5.21 U/mg of soluble protein × 10^−2
[3]; 35 days after sowing
  Difference % Treated minus untreated (peptidase, DL-BAPA): −23.54%
  Peptidase activity, PBO treated cv. V2i Bt: 9.43 U/mg of soluble protein × 10^−2
[3]; 60 days after sowing
  Difference % Treated minus untreated (peptidase, DL-BAPA): −25.55%
  Peptidase activity, PBO treated cv. V2i Bt: 13.62 U/mg of soluble protein × 10^−2
[3]; 85 days after sowing
  Difference % Treated minus untreated (peptidase, DL-BAPA): 18.68%
  Peptidase activity, PBO treated cv. V2i Bt: 12.42 U/mg of soluble protein × 10^−2
Bromelain [4]
  IC50: 400 µM
  Ki: 100 µM
